Experimental data taken from patent publication US20050089577A1, “Liquid matrix undergoing phase transfer in vivo and liquid oral preparations” (priority 2002, published 2005).
Where “and” joins values, the source holds several entries; their conditions need not be identical. Equal entries are not always repeated. Structures can show the parent of a compound that is named as a salt. One block for each compound: values may come before it.

Columns and labels:
acetic acid ulcer = experiment: Therapeutic effect in rat acetic acid chronic ulcer model; assay type: in vivo, Wister male rats; settings: 0.5 ml daily once for 2 weeks, eighth week; for Average ulcer coefficient: 3 rats; for Ulcer coefficient: individual rats
Source text: That is, the rats were anesthetized under Nembutal and the belly was cut along the midline to remove the stomach. Then, a cylinder of […] in diameter charged with absorbent cotton impregnated sufficiently with 100% acetic acid was pressed against the border between the stomach and the pyloric region for about 30 seconds, and the acetic acid adhering to the serous membrane was wiped off with a germ-free gauze, and the belly was sutured. After 6 weeks, one rat was picked up as the control at random from the untreated group, killed and dissected to confirm ulcer formation. […] In the seventh and eight weeks, one untreated rat selected at random was killed and the belly was opened to reconfirm formation of stomach ulcer. Each rat was killed in the eight week and the area of the ulcer was measured, and the ulcer coefficient was determined according to a method of Okabe et al. (Okabe S, Roth […] method for experimental penetrating gastric and duodenal ulcers in rats. Observation on normal healing. Amer J Dig Dis 16: 277-284, 1971).

indomethacin ulcer = experiment: Therapeutic effect in indomethacin ulcer rat model; assay type: in vivo, Wister male rats; set-up: key: no bleeding was expressed as negative (−); trace bleeding was given (±); dotted bleeding (+); broad bleeding (++); settings: individual rats; given 3 hours after indomethacin 20 mg/kg; judged after 24 hours; PGE1 3.3 μg/kg
Protocol: 3 hours after administration of indomethacin, prostaglandin (PGE1) liquid preparation No. 41 (containing alprostadil alfadex as the medicine), PGE1 solution dissolved in purified water in a dose of 3.3 μg/kg in weight as a positive control, the liquid matrix only was administered as a negative control, and purified water only for confirming formation of ulcer to the untreated group, respectively, was administered. After 1 hour, the rats were given feed. The untreated group after 3 hours from administration of indomethacin and the other groups after 24 hours were killed, and dissected to judge ulcer and bleeding in the stomach.
Indomethacin ulcer in the fasted rats is different from that in humans, and develops in the stomach without generating in the pyloric vestibule. Therefore, judgment was made on the basis of bleeding. That is, no bleeding was expressed as negative (−), trace bleeding was given (±), dotted bleeding (+), and broad bleeding (++).

[1] = rat, in vivo, 20 mg/kg
Protocol: These rats were fasted for 24 hours, and then indomethacin (IND) suspended in 1% carboxymethyl cellulose (CMS) solution was administered in a dose of 20 mg/kg to the rats via an oral probe for rat into the stomach to induce indomethacin ulcer.

Structure (SMILES): NC[C@H]1CC[C@H](C(=O)Oc2ccc(CCC(=O)O)cc2)CC1 [Cetraxate HCl solution, cetraxate hydrochloride]
Average ulcer coefficient (acetic acid ulcer): 2.33
Ulcer coefficient (acetic acid ulcer; hydrochloride): 2 (2 for 11 to 20 mm^2) (2×) and 3 (3 for 21 to 30 mm^2)

Structure (SMILES): CN/C(=N/CCSCc1nc[nH]c1C)NC#N [Cimetidine solution, cimetidine]
Average ulcer coefficient (acetic acid ulcer): 2.67
Ulcer coefficient (acetic acid ulcer): 3 (3 for 21 to 30 mm^2) (2×) and 2 (2 for 11 to 20 mm^2)

Structure (SMILES): CCCCC[C@H](O)/C=C/[C@H]1[C@H](O)CC(=O)[C@@H]1CCCCCCC(=O)O [PEG1 solution, prostaglandin (PGE1)]
Judgment of bleeding in the stomach (indomethacin ulcer): ± (3×) and + and −

Structure (SMILES): CC(=O)CC/C=C(\C)CC/C=C(\C)CC/C=C(\C)CCC=C(C)C [Teprenone solution, teprenone]
Average ulcer coefficient (acetic acid ulcer): 2.33
Ulcer coefficient (acetic acid ulcer): 3 (3 for 21 to 30 mm^2) and 2 (2 for 11 to 20 mm^2) (2×)

Time at which blood concentration reached the maximum ([1]; male, Wister): 3 h
Structure (SMILES): COc1ccc2c(c1)c(CC(=O)O)c(C)n2C(=O)c1ccc(Cl)cc1 [indomethacin]
Finding in the stomach [1]: erosive bleeding was observed in the stomach
